Measurements as given in patent US6451790B1, “Azadioxacycloalkenes and their use for combating harmful fungi and animal pests” (BASF Aktiengesellschaft, priority 1999, dated 2002).

Assays:
Format in all cases: in vivo
Pyricularia oryzae = conditions: 16 ppm, protective spray 1 day before inoculation, rice 'Tai-Nong 67', 6 days; untreated 90%
Puccinia recondita = experiment: Curative action against Puccinia recondita on wheat (wheat leaf rust); conditions: 16 ppm, curative spray 1 day after inoculation, wheat 'Kanzler', 7 days; untreated 100%
Botrytis cinerea = experiment: Action against Botrytis cinerea on bell pepper leaves; conditions: 250 ppm, spray 1 day before inoculation, bell pepper seedlings, after 5 days; untreated 80%
Source text: The active compounds, separately or together, were formulated as a 10% emulsion in a mixture of 70% by weight of cyclohexanone, 20% by weight of Nekanil® LN (Lutensol® AP6, wetting agent having emulsifying and dispersant action based on ethoxylated alkylphenols) and 10% by weight of Wettol® EM (nonionic emulsifier based on ethoxylated castor oil) and diluted with water to the desired concentration.
Bell pepper seedlings of the variety “Neusiedler Ideal Elite” were, after 4 to 5 leaves were well developed, sprayed to run-off point with an aqueous active compound formulation which had been made up from a stock solution consisting of 10% of active compound, 63% of cyclohexanone and 27% of emulsifier. The next day, the treated plants were inoculated with a spore suspension of Botrytis cinerea which contained 1.7×10^6 spores/ml in an aqueous 2% strength biomalt solution. The test plants were subsequently placed in a climatized chamber at 22-24° C. and high atmospheric humidity. After 5 days, the extent of the fungal infection on the leaves could be determined visually in %.

| Structure (SMILES) | infection (extent of development of the disease on the leaves) (Pyricularia oryzae) | infection (extent of rust fungus development on the leaves) (Puccinia recondita) | infection (extent of fungal infection on the leaves) (Botrytis cinerea) |
| --- | --- | --- | --- |
| CO/N=C(/C1=NOCCO1)c1ccccc1COc1ccn(-c2ccc(Cl)cc2)n1 [Compound I-1, (ortho-[1-{4-chlorophenyl}-pyrazol-3-yl-oxymethyl]-phenyl)(5,6-dihydro-[1,4,2]dioxazin-3-yl)methanone O-methyl oxime] | 10% | no infection | 3% |
| CO/N=C(/C1=NOCCO1)c1ccccc1COc1ccccc1C [Compound B] | 40% | 90% |  |
| CO/N=C(/C(=O)OC)c1ccccc1COc1ccn(-c2ccc(Cl)cc2)n1 [Compound A] |  | 60% | 40% |
